Measurements published in patent US20250041215A1, “MULTIDOSE PRESERVATIVE-FREE (MDPF) OPHTHALMIC DOSE DELIVERY WITH ADDITION OF FORMULATION SURFACTANTS” (ALCON INC., priority 2023, published 2025).

Assay: Surface tension of ophthalmic composition with added surfactant (Biolin Sigma 700/701 tensiometer)
Assay type: physicochemical
Details: surfactant added at 0.1% w/v to ophthalmic composition A or B, FIGS. 4-6

change of surface tension of the ophthalmic composition | change of surface tension of the ophthalmic composition (listed as tyloxapol) | Substance
surface tension was lowered | – | polysorbate 80
reduced the surface tension the most | surface tension was lowered | tyloxapol
surface tension was lowered | – | polyoxyl 40 stearate
